From paper PMC11111408, “Concurrent inhibition of oncogenic and wild-type RAS-GTP for cancer therapy” (Nature, 2024)

Key:
[1] = target: KRAS^G12S (Homo sapiens, UniProt P01116+P62937, G12S); test: Biochemical RAS–RAF (BRAF RBD) disruption, TR-FRET; parameters: His6-TEV (N); made in house; host or cells: E. coli BL21(DE3)
Description: (§1) Time-resolved fluorescence resonance energy transfer (TR-FRET) was used as previously described to assess disruption of the interactions between wild-type RAS or the mutant oncogenic RAS proteins and the RAS-binding domain of BRAF, and to assess the induction of interactions between the RAS proteins and CYPA[12].

[2] = target: HRAS WT (Homo sapiens, UniProt P01112+P62937); test: Biochemical RAS–RAF (BRAF RBD) disruption, TR-FRET; parameters: His6-TEV (N); made in house; host or cells: E. coli BL21(DE3)
Description: as §1

## CCn1c(-c2cc(N3CCN(C4CC4)CC3)cnc2[C@H](C)OC)c2c3cc(ccc31)-c1csc(n1)C[C@H](NC(=O)[C@H]1[C@@H]3COC[C@@H]31)C(=O)N1CCC[C@H](N1)C(=O)OCC(C)(C)C2 [RMC-7977]
[1]
  EC50: 107 nM
[2]
  EC50: 59.9 nM
